Laboratory results from patent US20030194409A1, “Conjugate heat shock protein-binding peptides” (priority 2002, published 2003).
Read-outs that look alike come from different tables or passages of the source.

Assays:
[1] = target: T1, gp96 in the presence of herbimycin A (Mus musculus, UniProt P08113); assay: Affinity panning of phage display heptapeptide library on gp96 in the presence of herbimycin A; assay type: binding; conditions: for % actual (amino acid frequency in sequenced gp96-binding phage-expressed heptapeptides): TWEEN 20
T1 construct: The mouse cDNA encoding mature gp96 (i.e., wherein the endoplasmic reticulum signal peptide has been removed) was incorporated into the pET 11 a expression vector; made in house; host or cells: Escherichia coli BL21 (pET11gp96)
Method: Preparation of a gp96 expression vector. The mouse cDNA encoding mature gp96 (i.e., wherein the endoplasmic reticulum signal peptide has been removed) was incorporated into the pET 11 a expression vector (Novagen) as follows. Gp96 cDNA insert was prepared by polymerase chain reaction (PCR) of a pRc/CMV clone containing the cDNA using the following oligonucleotide primers: […]
Expression of gp96. pET11gp96 was transformed into BL21 Escherichia coli cells, and plated on LB plates containing ampicillin (50 μg/ml). One of the resulting colonies was used to inoculate a 20 ml overnight culture of 2×TY medium containing ampicillin (150 μg/ml). The following day, the resulting culture was spun down and the harvested bacteria were resuspended in 1 ml of fresh medium. Two one liter cultures were then each inoculated with 0.5 ml of the harvested cells and allowed to grow at 37° C. until the optical density, measured at 600 nm, was 0.5. Then, IPTG was added to a concentration of 1 mM and the cells were cultured for another 3 hours before being harvested by centrifugation. The resulting cell pellet was resuspended in 20 ml of 50 mM HEPES pH 7.5, 50 mM KCl, 5 mM MgAcetate, 20% sucrose and 1 mM PMSF. Cell extracts were prepared by pressure shearing in a French Press. The lysates were then spun at 100,000×g for 1.5 hours and the supernatant, which constituted crude gp96 extract, was collected.
Purification of gp96. The following steps were all performed at 4° C. A 12.5 cm×3.2 cm column of DE52 resin (Whatman) was equilibrated in a solution of 50 mM MOPS pH 7.4, 10 mM NaCl, 5 mM MgAcetate (hereafter, “Buffer A”). The crude gp96 extract was diluted 2-fold and immediately loaded onto the column at a flow rate of 2 ml/min. Elution from the column was achieved using a gradient of a solution of 50 mM MOPS pH 7.4, 1M NaCl, 5 mM MgAcetate (hereafter, “Buffer B”) from 0% to 100% Buffer B over 1000 ml. The elution profile was examined by subjecting fractions collected from the column to SDS-PAGE analysis. Fractions containing gp96 were pooled and diluted 2-fold with cold water, and were immediately run onto the next column (see below).
A 10 cm×1 cm column of hydroxyapatite (BioRad) was washed with 100 ml 0.5 M K2HPO4, 50 mM KCl pH 7.4 and then equilibrated with 10 mM K2HPO4, 50 mM KCl pH 7.4. The pooled diluted fractions from the DE52 column were loaded onto this column at a flow rate of 1 ml/min. The gp96 protein was eluted in a gradient of 10-500 mM K2HPO4 over 800 ml. Fractions containing gp96 were pooled and loaded onto the phenylsepharose column described below.
A 9 cm×3 cm column of phenylsepharose (Pharmacia) was equilibrated with 500 mM NaCl, 50 mM MOPS pH 7.4. The pooled fractions containing gp96 from the hydroxyapatite were loaded onto this column at 1 ml/min and the gp96 was eluted in a gradient of 500-0 mM NaCl over 800 ml. The gp96 containing fractions collected from the column were identified by SDS-PAGE, pooled, and concentrated.
The gp96 was then loaded onto a Hi Load 26/60 Superdex-200 column (Pharmacia) equilibrated with 100 mM NaCl, 5 mM MgAcetate, 50 mM MOPS pH 7.5, 3 ml fractions were collected, and the fractions containing the most pure gp96 (as identified by SDS PAGE using a 12 percent reducing gel) and pooled. To the pooled fractions, glycerol was added to 10% (v/v), and then the fractions were concentrated to 21 mg/ml on a Centricon-50 concentrator (Amicon), frozen using liquid nitrogen, and stored at −80° C.
Affinity panning. The Ph.D. Phage Display Library Kit (New England BioLabs, Beverly, Mass.), was used for affinity panning. For each panning experiment, a well of a 96-well polystyrene microtiter plate (each well having a 6 mm diameter) was filled with 150 μl of a solution of 200 μg/ml of gp96 in 0.1 M NaHCO3 pH 8.3. If herbimycin A was to be included in the experiment, 1 μl of 10 mg/ml herbimycin A (GIBCO) in DMSO was added to each well, corresponding to a 50-fold molar excess relative to gp96. […]

[2] = target: T1, gp96 in the presence of herbimycin A; conditions: expected frequency for comparison with % actual, cited from earlier work
[3] = Table XII, gp96 and herbimycin A, binding buffer without calcium: 20 mM HEPES pH 7.5, 100 mM KCl, 1 mM DTT, 1 mM MgAcetate, 42 phage-expressed peptides sequenced
[4] = Table XIV, gp96 in the presence of herbimycin A, binding buffer with ATP: 20 mM HEPES pH 7.5, 100 mM KCl, 1 mM CaCl2, 1 mM MgAcetate, 1 mM ATP
[5] = Table XVI, binding buffer with AMP-PNP instead of ATP: 20 mM HEPES pH 7.5, 100 mM KCl, 1 mM CaCl2, 1 mM MgAcetate, 1 mM AMP-PNP

T1 sequence (P08113 22-802): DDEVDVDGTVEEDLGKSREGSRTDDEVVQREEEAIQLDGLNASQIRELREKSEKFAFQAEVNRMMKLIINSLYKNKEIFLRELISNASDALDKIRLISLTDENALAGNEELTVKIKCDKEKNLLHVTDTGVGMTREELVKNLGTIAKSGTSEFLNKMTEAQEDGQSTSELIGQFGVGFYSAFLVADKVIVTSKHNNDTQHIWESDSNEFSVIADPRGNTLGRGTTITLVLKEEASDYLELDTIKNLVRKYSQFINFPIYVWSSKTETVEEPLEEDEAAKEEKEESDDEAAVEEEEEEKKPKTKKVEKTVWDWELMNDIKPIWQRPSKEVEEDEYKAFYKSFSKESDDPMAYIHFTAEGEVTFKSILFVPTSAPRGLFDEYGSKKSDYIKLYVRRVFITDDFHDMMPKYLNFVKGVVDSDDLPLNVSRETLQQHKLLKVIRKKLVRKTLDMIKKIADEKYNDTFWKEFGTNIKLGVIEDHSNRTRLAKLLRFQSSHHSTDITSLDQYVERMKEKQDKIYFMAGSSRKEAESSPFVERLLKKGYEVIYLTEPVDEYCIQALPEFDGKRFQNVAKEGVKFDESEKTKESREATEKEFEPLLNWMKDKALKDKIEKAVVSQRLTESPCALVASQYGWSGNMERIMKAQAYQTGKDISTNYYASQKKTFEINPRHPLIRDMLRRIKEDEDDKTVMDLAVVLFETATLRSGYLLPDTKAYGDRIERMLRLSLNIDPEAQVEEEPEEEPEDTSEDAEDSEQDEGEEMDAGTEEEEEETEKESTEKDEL

Molecule	% actual (amino acid frequency in sequenced gp96-binding phage-expressed heptapeptides) [1, 3] [%]	% actual (amino acid frequency in sequenced gp96-binding phage-expressed heptapeptides) [1, 4] [%]	% actual (amino acid frequency in sequenced gp96-binding phage-expressed heptapeptides) [1, 5] [%]	% expected (amino acid frequency) ([2]; Table XII) [%]	% expected (amino acid frequency) ([2]; Table XIV) [%]	% expected (amino acid frequency) ([2]; Table XVI) [%]	binding of phage-expressed peptides to gp96 ([1]; 20 mM HEPES pH 7.5, 100 mM KCl, 25 mM CaCl2, 5 mM MgAcetate, TWEEN-20, herbimycin A present)
C[C@H](N)C(=O)O [Ala]	10.2	3.57	8.5	7.2	7.2	7.2	
N=C(N)NCCC[C@H](N)C(=O)O [Arg]	2.72	5.35	5.7	3.9	3.9	3.9	
NC(=O)C[C@H](N)C(=O)O [Asn]	3.06	5.3	5.7	4.1	4.1	4.1	
N[C@@H](CC(=O)O)C(=O)O [Asp]	2.04	0	1.4	2.1	2.1	2.1	
N[C@@H](CS)C(=O)O [Cys]	0	0	0	0.8	0.8	0.8	
NC(=O)CC[C@H](N)C(=O)O [Gln]	2.0	1.78	5.7	6.4	6.4	6.4	
N[C@@H](CCC(=O)O)C(=O)O [Glu]	2.0	0	0	1.2	1.2	1.2	
NCC(=O)O [Gly]	3.74	1.78	1.4	3.7	3.7	3.7	
N[C@@H](Cc1c[nH]cn1)C(=O)O [His]	5.44	10.7	12.8	4.3	4.3	4.3	
CC(C)C[C@H](N)C(=O)O [Leu]	12.92	10.7	5.7	11.8	11.8	11.8	
NCCCC[C@H](N)C(=O)O [Lys]	3.74	0	2.85	1.7	1.7	1.7	
CSCC[C@H](N)C(=O)O [Met]	2.0	0	2.85	3.3	3.3	3.3	
N[C@@H](Cc1ccccc1)C(=O)O [Phe]	2.38	0	2.85	2.9	2.9	2.9	
O=C(O)[C@@H]1CCCN1 [Pro]	10.88	14.2	12.8	12	12	12	
N[C@@H](CO)C(=O)O [Ser]	10.88	16.0	4.28	11.4	11.4	11.4	
C[C@@H](O)[C@H](N)C(=O)O [Thr]	13.95	8.9	10	9.3	9.3	9.3	
N[C@@H](Cc1c[nH]c2ccccc12)C(=O)O [Trp]	1.36	3.57	2.85	1	1	1	
Phe-His-Trp-Trp-Trp (FHWWW; printed: Phe-His-Trp-Trp-Trp)							appeared to be favored
